Organism: Rattus norvegicus
Experiment: Open TG-GATES - Regimen: Single
Type: toxicity, organism-based, Sprague-Dawley
Design: regimen Single, gender Male, age 6 weeks
Conditions: in vivo, po, 300 mg/kg, route gavage, dose level Middle; for APTT / Bas / Eos / Fbg / Hb / Ht / Lym / MCH / MCHC / MCV / Mono / Neu / PT / Plat / RBC / Ret / WBC: tissue Blood; for KIDNEY_L / KIDNEY_R / KIDNEY_TOTAL: tissue Kidney; for LIVER: tissue Liver; for A/G / ALP / ALT / AST / BUN / CRE / Ca / Cl / DBIL / GLC / IP / K / LDH / Na / PL / RALB / TBIL / TC / TG / TP / gamma-GTP: tissue Plasma

SMILES: CNC(=C[N+](=O)[O-])NCCSCc1ccc(CN(C)C)o1 [RANITIDINE]
- TERMINAL_BW (9 h): 211.5 g
- APTT (9 h): 19.5 s
- Bas (9 h): 0%
- Eos (9 h): 1%
- Fbg (9 h): 241 mg/dL
- Hb (9 h): 13.3 g/dL
- Ht (9 h): 38.2%
- Lym (9 h): 67.8%
- MCH (9 h): 21.6 pg
- MCHC (9 h): 34.7%
- MCV (9 h): 62.3 fL
- Mono (9 h): 2.6%
- Neu (9 h): 26%
- PT (9 h): 12.7 s
- Plat (9 h): 116.8 x10_4/uL
- RBC (9 h): 614.4 x10_4/ul
- Ret (9 h): 7.2%
- WBC (9 h): 76 x10_2/uL
- KIDNEY_L (9 h): 1 g
- KIDNEY_R (9 h): 1 g
- KIDNEY_TOTAL (9 h): 1.9 g
- LIVER (9 h): 9.2 g
- A/G (9 h): 1.6
- ALP (9 h): 741.8 IU/L
- ALT (9 h): 32 IU/L
- AST (9 h): 61 IU/L
- BUN (9 h): 9.8 mg/dL
- CRE (9 h): 0.4 mg/dL
- Ca (9 h): 10.5 mg/dL
- Cl (9 h): 103.8 meq/L
- DBIL (9 h): 0.074 mg/dL
- GLC (9 h): 204.6 mg/dL
- IP (9 h): 8.4 mg/dL
- K (9 h): 3.6 meq/L
- LDH (9 h): 120.6 IU/L
- Na (9 h): 141.6 meq/L
- PL (9 h): 143.8 mg/dL
- RALB (9 h): 3.4 g/dL
- TBIL (9 h): 0.1 mg/dL
- TC (9 h): 76.4 mg/dL
- TG (9 h): 46 mg/dL
- TP (9 h): 5.6 g/dL
- gamma-GTP (9 h): 1.4 IU/L
- TERMINAL_BW (24 h): 230.2 g
- APTT (24 h): 23.9 s
- Bas (24 h): 0%
- Eos (24 h): 1%
- Fbg (24 h): 225.4 mg/dL
- Hb (24 h): 13.6 g/dL
- Ht (24 h): 38.7%
- Lym (24 h): 80.6%
- MCH (24 h): 22.5 pg
- MCHC (24 h): 35%
- MCV (24 h): 64.2 fL
- Mono (24 h): 2.4%
- Neu (24 h): 14%
- PT (24 h): 12.3 s
- Plat (24 h): 125.9 x10_4/uL
- RBC (24 h): 603.2 x10_4/ul
- Ret (24 h): 6.3%
- WBC (24 h): 104.2 x10_2/uL
- KIDNEY_L (24 h): 1 g
- KIDNEY_R (24 h): 1 g
- KIDNEY_TOTAL (24 h): 2 g
- LIVER (24 h): 11.2 g
- A/G (24 h): 1.7
- ALP (24 h): 1036.4 IU/L
- ALT (24 h): 33.4 IU/L
- AST (24 h): 63.2 IU/L
- BUN (24 h): 15.8 mg/dL
- CRE (24 h): 0.4 mg/dL
- Ca (24 h): 10.7 mg/dL
- Cl (24 h): 102.2 meq/L
- DBIL (24 h): 0.086 mg/dL
- GLC (24 h): 196.6 mg/dL
- IP (24 h): 7.6 mg/dL
- K (24 h): 4 meq/L
- LDH (24 h): 132.6 IU/L
- Na (24 h): 140 meq/L
- PL (24 h): 152.8 mg/dL
- RALB (24 h): 3.4 g/dL
- TBIL (24 h): 0.1 mg/dL
- TC (24 h): 79.2 mg/dL
- TG (24 h): 78.6 mg/dL
- TP (24 h): 5.3 g/dL
- gamma-GTP (24 h): 1 IU/L

Source: ChEMBL document CHEMBL3885861, “Open TG-GATES”
